Results: US9260408B2, “Dihydroquinoline-2-one derivatives” (Hoffmann-La Roche Inc., priority 2011, dated 2016)

How the values were obtained:
[1] = biological target: T1, human CYP11B2 (Homo sapiens, UniProt P19099); experiment: G-402 cellular enzyme assay, human CYP11B2 (aldosterone release, HTRF); format: cell-based; details: G-402 cells expressing human CYP11B2; 1 μM Deoxycorticosterone
T1 construct: expressed in transfected cells
T1 sequence (P19099 25-503): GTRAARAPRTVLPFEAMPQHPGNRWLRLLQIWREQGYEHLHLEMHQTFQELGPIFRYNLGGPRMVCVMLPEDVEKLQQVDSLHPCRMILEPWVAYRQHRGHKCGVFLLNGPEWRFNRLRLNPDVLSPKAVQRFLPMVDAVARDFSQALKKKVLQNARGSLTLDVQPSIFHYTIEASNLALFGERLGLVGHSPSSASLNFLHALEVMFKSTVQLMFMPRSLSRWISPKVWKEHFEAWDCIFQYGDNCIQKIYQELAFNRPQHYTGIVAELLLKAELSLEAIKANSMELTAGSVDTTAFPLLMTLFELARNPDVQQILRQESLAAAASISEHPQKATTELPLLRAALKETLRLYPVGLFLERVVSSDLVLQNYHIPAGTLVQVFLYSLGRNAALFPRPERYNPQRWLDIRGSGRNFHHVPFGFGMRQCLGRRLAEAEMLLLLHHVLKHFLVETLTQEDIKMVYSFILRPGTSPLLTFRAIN
Summary of the method: (§1)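 G-402 cells stably expressing human CYP11B2 or CYP11B1, in DMEM/F12 with 2.5% charcoal-treated FCS, were incubated 16 h with compound plus 1 μM deoxycorticosterone (CYP11B2) or 1 μM deoxycortisol (CYP11B1). Aldosterone or cortisol in the supernatant measured by HTRF; EC50 from a 4-parameter MMF fit.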

[2] = biological target: T2, human CYP11B1 (Homo sapiens, UniProt P15538); experiment: G-402 cellular enzyme assay, human CYP11B1 (cortisol release, HTRF); format: cell-based; details: G-402 cells expressing human CYP11B1; 1 μM Deoxycortisol
T2 construct: expressed in transfected cells
T2 sequence (P15538 25-503): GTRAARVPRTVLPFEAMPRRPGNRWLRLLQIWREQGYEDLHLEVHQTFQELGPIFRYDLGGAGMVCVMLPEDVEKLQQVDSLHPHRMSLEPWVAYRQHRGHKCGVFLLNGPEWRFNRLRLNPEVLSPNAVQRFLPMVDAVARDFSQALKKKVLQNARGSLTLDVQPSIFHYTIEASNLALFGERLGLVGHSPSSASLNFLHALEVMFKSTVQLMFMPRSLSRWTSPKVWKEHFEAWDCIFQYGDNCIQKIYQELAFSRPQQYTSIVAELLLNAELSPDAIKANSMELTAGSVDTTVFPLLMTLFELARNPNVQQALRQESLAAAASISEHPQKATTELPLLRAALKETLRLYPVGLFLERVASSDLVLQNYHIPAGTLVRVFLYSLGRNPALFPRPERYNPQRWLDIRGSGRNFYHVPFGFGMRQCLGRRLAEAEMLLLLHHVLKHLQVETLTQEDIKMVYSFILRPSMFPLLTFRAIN
Summary of the method: as §1

Compound | EC50 [1] [nM] | EC50 [2] [nM]
Cc1noc(C)c1S(=O)(=O)NCc1cncc(-c2ccc3c(c2)CCC(=O)N3C)c1 [Example 154, 3,5-Dimethyl-isoxazole-4-sulfonic acid [5-(1-methyl-2-oxo-1,2,3,4-tetrahydro-quinolin-6-yl)-pyridin-3-ylmethyl]-amide] | 114 | 1430
CN1C(=O)CCc2cc(-c3cncc(CNS(=O)(=O)C4CC4)c3)ccc21 [Example 155, Cyclopropanesulfonic acid [5-(1-methyl-2-oxo-1,2,3,4-tetrahydro-quinolin-6-yl)-pyridin-3-ylmethyl]-amide] | 47 | 589
CN1C(=O)CCc2cc(-c3cncc(CNS(=O)(=O)c4ccc(Cl)c(Cl)c4)c3)ccc21 [Example 156, 3,4-Dichloro-N-[5-(1-methyl-2-oxo-1,2,3,4-tetrahydro-quinolin-6-yl)-pyridin-3-ylmethyl]-benzenesulfonamide] | 155 | 1370
CN1C(=O)CCc2cc(-c3cncc(CNS(=O)(=O)c4cn(C)cn4)c3)ccc21 [Example 157, 1-Methyl-1H-imidazole-4-sulfonic acid [5-(1-methyl-2-oxo-1,2,3,4-tetrahydro-quinolin-6-yl)-pyridin-3-ylmethyl]-amide] | 463 | 3260
CN1C(=O)CCc2cc(-c3cncc(CNS(=O)(=O)c4ccc(Cl)nc4)c3)ccc21 [Example 158, 6-Chloro-pyridine-3-sulfonic acid [5-(1-methyl-2-oxo-1,2,3,4-tetrahydro-quinolin-6-yl)-pyridin-3-ylmethyl]-amide] | 239 | 6430
CN1C(=O)CCc2cc(-c3cncc(CNS(=O)(=O)c4cnn(C)c4)c3)ccc21 [Example 159, 1-Methyl-1H-pyrazole-4-sulfonic acid [5-(1-methyl-2-oxo-1,2,3,4-tetrahydro-quinolin-6-yl)-pyridin-3-ylmethyl]-amide] | 180 | 7930
CCS(=O)(=O)N1CCC[C@H](Oc2cncc(-c3ccc4c(c3)CCC(=O)N4C)c2)C1 [Example 160, 6-[5-((S)-1-Ethanesulfonyl-piperidin-3-yloxy)-pyridin-3-yl]-1-methyl-3,4-dihydro-1H-quinolin-2-one] | 113 | 716
CCS(=O)(=O)N1CCC(Oc2cncc(-c3ccc4c(c3)CCC(=O)N4C)c2)CC1 [Example 161, 6-[5-(1-Ethanesulfonyl-piperidin-4-yloxy)-pyridin-3-yl]-1-methyl-3,4-dihydro-1H-quinolin-2-one] | 1 | 8
CN1C(=O)CCc2cc(-c3cncc(CNS(=O)(=O)CC(F)(F)F)c3)ccc21 [Example 162, 2,2,2-Trifluoro-ethanesulfonic acid [5-(1-methyl-2-oxo-1,2,3,4-tetrahydro-quinolin-6-yl)-pyridin-3-ylmethyl]-amide] | 62 | 2850
CN1C(=O)CCc2cc(-c3cncc(CNS(=O)(=O)C(F)(F)F)c3)ccc21 [Example 163, C,C,C-Trifluoro-N-[5-(1-methyl-2-oxo-1,2,3,4-tetrahydro-quinolin-6-yl)-pyridin-3-ylmethyl]-methanesulfonamide] | 61 | 2390
CCS(=O)(=O)N1CC[C@H](Oc2cncc(-c3ccc4c(c3)CCC(=O)N4C)c2)C1 [Example 164, 6-[5-((S)-1-Ethanesulfonyl-pyrrolidin-3-yloxy)-pyridin-3-yl]-1-methyl-3,4-dihydro-1H-quinolin-2-one] | 9 | 207
CCS(=O)(=O)N1CC[C@H]1COc1cncc(-c2ccc3c(c2)CCC(=O)N3C)c1 [Example 165, 6-[5-((S)-1-Ethanesulfonyl-azetidin-2-ylmethoxy)-pyridin-3-yl]-1-methyl-3,4-dihydro-1H-quinolin-2-one] | 13 | 494
CCS(=O)(=O)NC1(c2cncc(-c3ccc4c(c3)CCC(=O)N4C)c2)CC1 [Example 166, Ethanesulfonic acid {1-[5-(1-methyl-2-oxo-1,2,3,4-tetrahydro-quinolin-6-yl)-pyridin-3-yl]-cyclopropyl}-amide] | 22 | 1210
